The conditions of data set [1]: cited from earlier work.
For data set [2] the following is noted: cited from earlier work. The source holds these as a separate data set.
The conditions of data set [3]: 20 grams a day for 5 days; five of the eight subjects; cited from earlier work.
For data set [4] the following is noted: four 5 gram per day; 30 second bouts of maximal isokinetic cycling; cited from earlier work.
For data set [5] the following is noted: in vivo; cited from earlier work.
A short description of data set [6]: TriCreatine Orotate method of use, 4 weeks post-workout oral supplementation. The settings on record: weight trained person, 5 grams orally post workout, end of 4 week period. Format: in vivo, human. The text has this:
In this example a experienced weight trained person orally consumes 5 grams of tricreatine orotate post workout for 4 weeks with beverage. Glucose or any insulin potentiating compound may added for even greater results. In this instance the tricreatine orotate is incorporated into free powder mixture of flavoring agents and D-glucose, which is then combined with water. Once in the plasma tricreatine orotate then exerts a synergistic lean tissue promoting effect due to the anabolic actions of creatine and orotic acid. The creatine enhances phophocreatine resynthesis and attracts water to intercellular component of the muscle cell, which in turn activates protein synthesis while the orotic acid promotes uridine phosphates and glycogen synthesis. The previously mentioned physiological functions lead to increases in lean body mass, strength, endurance, recovery and loss of fat tissue. At the end of the 4 week period the individual reported a 6 pound weight gain, a 20 pound increase in […] 1 repetition maximum bench press, and a 5 repetition increase in […] initial 70 percent maximum bench press. These increases contribute to the regulation of athletic function and thus lead to enhanced physical performance.

For the compound `CN(CC(=O)O)C(=N)N.O` [creatine monohydrate], the “rise in plasma creatine concentration” value in data set [1] (1 gram dose) is recorded as “only a modest rise”. In addition, the “time of mean peak plasma creatine” value in data set [1] (5 gram dose) is 1 h. Also, the “total creatine content of the quadriceps” value in data set [2] (5 grams four to six times a day for 2 or more days) was “significant increase”. In addition, the creatine uptake in data set [2] (first two days of supplementation, six 5 gram doses) is listed as 32%. Further, in data set [2] (in vivo), the “creatine taken up measured as phosphocreatine (PCr)” value is recorded as at least 20%.
For the compound `CN(CC(=O)O)C(=N)N` [creatine], in data set [3], the “muscle total creatine concentration and phosphocreatine resynthesis” value is on record as “substantially increased”. In data set [4], the “peak power output and mean power output” value is “significantly increased”.
On to `O=C(O)c1cc(=O)[nH]c(=O)[nH]1` [orotic acid, 1,2,3,6-Tetrahydro-2,6-dioxo-4-pyrimidecarboxylic acid], for which the “growth and functional maturation of animals” value in data set [5] is recorded as “significant acceleration”.
For Tricreatine orotate, in data set [6], the “increase in 1 repetition maximum bench press” value was 20 pound, the “increase in initial 70 percent maximum bench press” value is 5 repetition and the weight gain came out at 6 pound.

These data come from patent USRE43029E1, “Process for preparing a creatine heterocyclic acid salt and method of use” (Bio-Engineered Supplements & Nutrition, Inc., priority 2003, dated 2011).
